According to US11578074B2, “Nitrogenous heterocyclic compound, preparation method, intermediate, composition, and application” (SHANGHAI PHARMACEUTICALS HOLDING CO., LTD., priority 2017, dated 2023):
Read-outs that look alike come from different tables or passages of the source.

Tests used:
[1] = tested on: HER2 overexpressing human gastric cancer NCI-N87 nude mice xenograft; assay: HER2 overexpressing human gastric cancer NCI-N87 nude mice xenograft model; assay type: in vivo; settings: 10 mg/kg, continuous oral administration for 21 days
Description: We have established nude mice xenograft model for HER2 overexpression.

[2] = molecular target: T1, CYP2D6 (Homo sapiens, UniProt P10635); assay: Direct inhibition (DI) of CYP2D6 in human liver microsomes; assay type: in vitro ADME; settings: probe Dextromethorphan, human liver microsomes 0.2 mg/mL, 10 μM compound, read-out: Direct inhibition (DI) 2D6 (Dextromethorphan)
T1 construct: A system of 100 μL human liver microsomes; from tissue; host or cells: human liver microsomes
T1 sequence (P10635 whole entry): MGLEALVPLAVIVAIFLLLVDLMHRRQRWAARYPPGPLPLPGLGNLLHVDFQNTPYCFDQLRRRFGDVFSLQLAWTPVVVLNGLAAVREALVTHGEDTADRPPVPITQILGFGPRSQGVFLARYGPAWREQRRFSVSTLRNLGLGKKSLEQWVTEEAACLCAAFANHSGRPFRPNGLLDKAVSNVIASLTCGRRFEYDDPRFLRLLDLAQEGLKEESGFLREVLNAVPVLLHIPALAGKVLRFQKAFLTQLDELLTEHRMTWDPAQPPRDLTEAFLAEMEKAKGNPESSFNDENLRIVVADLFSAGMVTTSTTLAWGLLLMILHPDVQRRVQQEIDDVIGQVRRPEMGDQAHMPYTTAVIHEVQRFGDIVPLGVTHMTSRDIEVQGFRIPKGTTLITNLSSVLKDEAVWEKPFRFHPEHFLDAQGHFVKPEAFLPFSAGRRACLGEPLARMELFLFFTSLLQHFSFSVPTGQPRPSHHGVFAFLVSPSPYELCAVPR
Procedure: (§1) Study on Direct Inhibition (DI) of CYP3A4, CYP2D6, CYP2C9, CYP2C19, CYP1A2
(§2) A system of 100 μL human liver microsomes (final concentration: 0.2 mg/mL) was used for direct inhibition under warm incubation. The system contained NADPH (final concentration: 1 mM), 10 μM compound, a positive inhibitor cocktail (Ketoconazole 10 μM, Quinidine: 10 μM, Sulfaphenazole: 100 μM, Naphthoflavone: 10 μM, Tranylcypromene 1000 μM), a negative control 10 μM DMSO and mixed probe substrates (Midazolam 10 μM, Testosterone 100 μM, Dextromethophan 10 μM, Diclofenac 20 μM, Phenetin 100 μM, Mephenytoin 100 μM). The reaction was terminated after incubation for 20 minutes. The relative activity of the enzymes was calculated by measuring the relative production of metabolites.

[3] = molecular target: T2, CYP2C19 (Homo sapiens, UniProt P33261); assay: Direct inhibition (DI) of CYP2C19 in human liver microsomes; assay type: in vitro ADME; settings: probe Mephenytoin, human liver microsomes 0.2 mg/mL, 10 μM compound, read-out: Direct inhibition (DI) 2C19 (Mephenytoin)
T2 construct: A system of 100 μL human liver microsomes; from tissue; host or cells: human liver microsomes
T2 sequence (P33261 whole entry): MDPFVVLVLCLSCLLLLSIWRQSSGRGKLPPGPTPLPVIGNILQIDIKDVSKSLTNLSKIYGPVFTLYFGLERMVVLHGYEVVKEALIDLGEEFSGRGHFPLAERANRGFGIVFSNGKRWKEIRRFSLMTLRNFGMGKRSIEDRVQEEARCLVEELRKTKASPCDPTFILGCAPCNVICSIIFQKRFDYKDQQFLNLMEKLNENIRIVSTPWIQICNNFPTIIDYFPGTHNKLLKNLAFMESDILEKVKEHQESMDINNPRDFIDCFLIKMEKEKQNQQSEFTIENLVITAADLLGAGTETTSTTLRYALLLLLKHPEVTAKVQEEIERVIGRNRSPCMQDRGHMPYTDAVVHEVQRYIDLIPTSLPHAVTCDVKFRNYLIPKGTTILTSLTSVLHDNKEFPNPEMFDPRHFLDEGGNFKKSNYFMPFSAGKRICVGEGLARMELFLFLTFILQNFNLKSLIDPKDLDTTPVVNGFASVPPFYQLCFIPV
Procedure: as §1, §2

[4] = molecular target: T3, ErbB2 kinase (Homo sapiens, UniProt P04626); assay: EGFR/ErbB2 enzymatic experiment (HTRF kinEASE-TK), ErbB2; assay type: biochemical; settings: ErbB2 kinase 0.06 ng/μL, ATP 4 μM; read-out: Kinase IC50 (nM) in vitro ErbB2
T3 construct: The final concentration of ErbB2 kinase was 0.06 ng/μL
T3 sequence (P04626 23-1255): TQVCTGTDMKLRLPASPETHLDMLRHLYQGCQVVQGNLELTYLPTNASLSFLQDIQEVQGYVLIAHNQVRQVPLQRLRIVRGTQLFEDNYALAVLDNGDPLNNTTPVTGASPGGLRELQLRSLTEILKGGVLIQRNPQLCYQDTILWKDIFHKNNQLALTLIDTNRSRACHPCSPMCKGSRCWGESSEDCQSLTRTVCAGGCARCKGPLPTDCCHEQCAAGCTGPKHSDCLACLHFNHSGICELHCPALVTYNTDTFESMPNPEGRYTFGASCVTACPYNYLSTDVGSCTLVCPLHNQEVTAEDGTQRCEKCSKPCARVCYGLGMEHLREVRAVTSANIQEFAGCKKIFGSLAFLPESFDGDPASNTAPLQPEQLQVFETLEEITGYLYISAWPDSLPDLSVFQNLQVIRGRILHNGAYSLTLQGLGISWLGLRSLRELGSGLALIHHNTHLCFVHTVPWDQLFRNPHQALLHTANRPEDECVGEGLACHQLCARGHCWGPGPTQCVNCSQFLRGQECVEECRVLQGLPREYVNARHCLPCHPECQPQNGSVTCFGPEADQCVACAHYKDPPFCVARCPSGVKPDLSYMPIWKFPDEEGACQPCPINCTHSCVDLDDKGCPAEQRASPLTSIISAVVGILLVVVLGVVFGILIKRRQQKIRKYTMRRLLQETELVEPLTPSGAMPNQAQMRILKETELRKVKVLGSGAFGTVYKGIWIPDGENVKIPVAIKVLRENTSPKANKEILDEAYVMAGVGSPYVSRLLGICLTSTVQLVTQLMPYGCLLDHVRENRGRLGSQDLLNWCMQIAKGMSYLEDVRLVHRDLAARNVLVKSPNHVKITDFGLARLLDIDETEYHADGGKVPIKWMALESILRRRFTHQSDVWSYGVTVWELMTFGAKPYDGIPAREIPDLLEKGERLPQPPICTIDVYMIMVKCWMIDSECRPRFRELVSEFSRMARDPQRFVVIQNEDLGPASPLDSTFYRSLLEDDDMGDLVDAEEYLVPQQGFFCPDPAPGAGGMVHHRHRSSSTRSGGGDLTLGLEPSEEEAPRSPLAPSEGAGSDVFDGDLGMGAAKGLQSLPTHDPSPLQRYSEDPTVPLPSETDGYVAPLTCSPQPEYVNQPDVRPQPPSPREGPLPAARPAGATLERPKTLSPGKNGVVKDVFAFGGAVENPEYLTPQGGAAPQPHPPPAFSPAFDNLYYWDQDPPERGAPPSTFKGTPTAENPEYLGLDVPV

[5] = molecular target: T4, CYP2C9 (Homo sapiens, UniProt P11712); assay: Direct inhibition (DI) of CYP2C9 in human liver microsomes; assay type: in vitro ADME; settings: probe Diclofenac, human liver microsomes 0.2 mg/mL, 10 μM compound, read-out: Direct inhibition (DI) 2C9 (Diclofenac)
T4 construct: A system of 100 μL human liver microsomes; from tissue; host or cells: human liver microsomes
T4 sequence (P11712 whole entry): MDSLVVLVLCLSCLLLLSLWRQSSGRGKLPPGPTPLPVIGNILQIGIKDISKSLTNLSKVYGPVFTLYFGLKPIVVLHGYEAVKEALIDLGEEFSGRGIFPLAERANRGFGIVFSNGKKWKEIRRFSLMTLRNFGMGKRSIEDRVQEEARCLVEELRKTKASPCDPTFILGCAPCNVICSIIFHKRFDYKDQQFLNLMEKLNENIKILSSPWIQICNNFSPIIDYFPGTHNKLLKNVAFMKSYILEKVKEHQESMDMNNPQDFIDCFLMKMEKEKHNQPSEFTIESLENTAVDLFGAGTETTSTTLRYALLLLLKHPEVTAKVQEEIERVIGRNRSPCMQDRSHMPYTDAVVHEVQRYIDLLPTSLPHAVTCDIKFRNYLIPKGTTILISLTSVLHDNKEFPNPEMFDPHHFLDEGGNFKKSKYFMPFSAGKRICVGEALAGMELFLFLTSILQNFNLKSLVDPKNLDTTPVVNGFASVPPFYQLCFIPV
Procedure: as §1, §2

[6] = tested on: BT-474 (human breast cancer cell); assay: In vitro proliferation inhibition assay of cell lines (CellTiter-Glo), BT-474; assay type: cell-based; settings: BT-474 cells, 72 hours
Method in brief: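 Cells were exposed to nine compound concentrations in duplicate for 72 h at 37 °C and 5% CO2. Viability was read with CellTiter-Glo reagent after equilibration at room temperature.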

[7] = tested on: N87 (human gastric cancer cell NCI-N87); assay: In vitro proliferation inhibition assay of cell lines (CellTiter-Glo), N87; assay type: cell-based; settings: N87 cells, 72 hours
Method in brief: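 Cells seeded overnight (BT-474 8.8×10^4 cells/mL, N87 6.6×10^4 cells/mL), then exposed to 9 compound concentrations in duplicate for 72 hours at 37° C, 5% CO2. Viability read by CellTiter-Glo luminescence.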

[8] = molecular target: EGFR kinase (Homo sapiens, UniProt P00533); assay: EGFR/ErbB2 enzymatic experiment (HTRF kinEASE-TK), EGFR; assay type: biochemical; settings: EGFR kinase 0.06 units/μL, ATP 1.65 μM; read-out: Kinase IC50 (nM) in vitro EGFR
EGFR kinase, sequence (P00533 25-1210): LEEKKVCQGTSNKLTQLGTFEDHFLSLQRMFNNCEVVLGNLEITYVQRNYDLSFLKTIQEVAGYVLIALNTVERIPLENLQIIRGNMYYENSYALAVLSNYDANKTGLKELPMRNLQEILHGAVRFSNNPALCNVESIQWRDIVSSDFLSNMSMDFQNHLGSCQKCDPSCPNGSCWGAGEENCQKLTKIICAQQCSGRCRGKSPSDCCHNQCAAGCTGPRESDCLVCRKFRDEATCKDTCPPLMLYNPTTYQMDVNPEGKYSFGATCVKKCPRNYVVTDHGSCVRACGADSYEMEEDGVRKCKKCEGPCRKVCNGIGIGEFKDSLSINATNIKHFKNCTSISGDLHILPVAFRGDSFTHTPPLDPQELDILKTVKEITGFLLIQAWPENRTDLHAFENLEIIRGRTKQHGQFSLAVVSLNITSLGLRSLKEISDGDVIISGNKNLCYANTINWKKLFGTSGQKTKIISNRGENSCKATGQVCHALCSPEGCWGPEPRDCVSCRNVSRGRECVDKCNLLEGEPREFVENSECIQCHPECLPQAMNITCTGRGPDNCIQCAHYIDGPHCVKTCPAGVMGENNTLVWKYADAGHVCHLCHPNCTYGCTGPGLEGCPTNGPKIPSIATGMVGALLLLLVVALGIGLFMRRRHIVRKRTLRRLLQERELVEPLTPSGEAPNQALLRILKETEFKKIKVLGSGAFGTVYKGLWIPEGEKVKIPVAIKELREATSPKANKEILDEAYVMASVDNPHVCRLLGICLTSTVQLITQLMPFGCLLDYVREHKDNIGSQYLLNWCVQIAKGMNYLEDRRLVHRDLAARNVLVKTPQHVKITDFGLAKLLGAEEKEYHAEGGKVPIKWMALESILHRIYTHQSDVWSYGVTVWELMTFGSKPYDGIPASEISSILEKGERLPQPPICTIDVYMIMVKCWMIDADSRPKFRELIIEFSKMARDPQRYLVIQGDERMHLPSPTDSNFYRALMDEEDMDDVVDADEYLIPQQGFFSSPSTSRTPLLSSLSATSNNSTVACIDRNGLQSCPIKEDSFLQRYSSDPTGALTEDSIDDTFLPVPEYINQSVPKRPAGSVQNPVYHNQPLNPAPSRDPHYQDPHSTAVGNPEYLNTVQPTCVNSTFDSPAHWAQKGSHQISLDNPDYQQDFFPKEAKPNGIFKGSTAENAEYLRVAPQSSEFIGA

[9] = molecular target: T5, CYP1A2 (Homo sapiens, UniProt P05177); assay: Direct inhibition (DI) of CYP1A2 in human liver microsomes; assay type: in vitro ADME; settings: probe Phenacetin, human liver microsomes 0.2 mg/mL, 10 μM compound, read-out: Direct inhibition (DI) 1A2 (Phenacetin)
T5 construct: A system of 100 μL human liver microsomes; from tissue; host or cells: human liver microsomes
T5 sequence (P05177 1-516): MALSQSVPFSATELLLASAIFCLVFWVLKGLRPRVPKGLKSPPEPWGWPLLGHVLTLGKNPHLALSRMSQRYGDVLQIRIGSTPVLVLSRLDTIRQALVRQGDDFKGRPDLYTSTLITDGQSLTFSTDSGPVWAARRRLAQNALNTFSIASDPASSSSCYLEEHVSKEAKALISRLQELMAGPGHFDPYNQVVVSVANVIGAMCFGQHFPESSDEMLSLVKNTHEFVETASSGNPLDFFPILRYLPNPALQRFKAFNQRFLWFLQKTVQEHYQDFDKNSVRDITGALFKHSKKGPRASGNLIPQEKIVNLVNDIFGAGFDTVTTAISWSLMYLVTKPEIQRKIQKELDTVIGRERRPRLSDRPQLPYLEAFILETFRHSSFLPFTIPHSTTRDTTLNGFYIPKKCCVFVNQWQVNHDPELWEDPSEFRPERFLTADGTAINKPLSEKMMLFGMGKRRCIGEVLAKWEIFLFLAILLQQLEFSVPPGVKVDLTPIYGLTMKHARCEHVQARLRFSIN
Procedure: as §1, §2

[10] = molecular target: T6, CYP3A4 (Homo sapiens, UniProt P08684); assay: Direct inhibition (DI) of CYP3A4 in human liver microsomes; assay type: in vitro ADME; settings: human liver microsomes 0.2 mg/mL, 10 μM compound
T6 construct: A system of 100 μL human liver microsomes; from tissue; host or cells: human liver microsomes
T6 sequence (P08684 whole entry): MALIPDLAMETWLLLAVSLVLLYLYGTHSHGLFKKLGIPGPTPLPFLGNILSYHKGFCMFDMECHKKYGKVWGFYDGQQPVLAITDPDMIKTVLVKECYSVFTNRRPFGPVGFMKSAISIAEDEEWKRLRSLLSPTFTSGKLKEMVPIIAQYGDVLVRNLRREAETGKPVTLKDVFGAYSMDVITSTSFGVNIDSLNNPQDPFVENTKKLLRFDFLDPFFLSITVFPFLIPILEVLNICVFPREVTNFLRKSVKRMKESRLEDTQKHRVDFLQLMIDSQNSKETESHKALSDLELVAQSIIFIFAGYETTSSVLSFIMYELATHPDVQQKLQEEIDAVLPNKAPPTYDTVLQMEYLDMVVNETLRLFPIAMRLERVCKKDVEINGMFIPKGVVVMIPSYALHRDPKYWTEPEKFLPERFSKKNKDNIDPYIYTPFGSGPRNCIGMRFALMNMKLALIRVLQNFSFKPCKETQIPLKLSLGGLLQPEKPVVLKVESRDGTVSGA
Procedure: as §1, §2

[11] = probe Midazolam, read-out: Direct inhibition (DI) 3A4 (Midazolam)
[12] = probe Testosterone, read-out: Direct inhibition (DI) 3A4 (testosterone)

Row | SMILES | tumor volume inhibition rate (GI %) [1] [%] | inhibition at 20 min, 10 µM [2] [%] | inhibition at 20 min, 10 µM [3] [%] | IC50 [4] [nM] | inhibition at 20 min, 10 µM [5] [%] | IC50 [6] [nM] | IC50 [7] [nM] | IC50 [8] [nM] | inhibition at 20 min, 10 µM [9] [%] | inhibition at 20 min, 10 µM [10, 11] [%] | inhibition at 20 min, 10 µM [10, 12] [%]
1 | CCOc1cc2ncc(C#N)c(Nc3ccc(OCc4ccccn4)c(Cl)c3)c2cc1NC(=O)/C=C/CN(C)C [Neratinib, reference compound] | 112.5 | – | – | – | – | – | – | – | – | – | –
2 | CCOc1cc2ncnc(Nc3ccc(Oc4ccn5ncnc5c4)c(C)c3)c2cc1NC(=O)/C=C/[C@H]1CCCN1 [Final product of Embodiment 38, (R,E)-N-(4-((4-([1,2,4]triazolo[1,5-a]pyridin-7-yloxy)-3-methylphenyl)amino)-7-ethoxyquinazolin-6-yl)-3-(pyrrolidin-2-yl)acrylamide] | – | 24 | 45 | 0.5 | 10 | 2.8 | 2.4 | 0.6 | < 0 | 5 | 16
3 | CCOc1cc2ncnc(Nc3ccc(Oc4ccn5ncnc5c4)c(C)c3)c2cc1NC(=O)/C(F)=C\[C@H]1CCCN1C [Final product of Embodiment 44] | – | 36 | 27 | 2.4 | 11 | 2 | 1.2 | 32.6 | 12 | < 0 | 13
4 | CCOc1cc2ncnc(Nc3ccc(Oc4cc5nncn5cn4)c(C)c3)c2cc1NC(=O)/C=C/[C@H]1CCCN1 [Final product of Embodiment 17, (R,E)-N-(4-((4-([1,2,4]triazolo[4,3-c]pyrimidin-7-yloxy)-3-methylphenyl)amino)-7-ethoxyquinazolin-6-yl)-3-(pyrrolidin-2-yl)acrylamide] | – | 4 | 9 | 0.488 | 8 | 5.31 | 4.97 | 0.251 | 3 | 17 | 34
5 | C=CC(=O)N1CCCC(Nc2ccc3ncnc(Nc4ccc(Oc5cc6nncn6cn5)c(C)c4)c3c2)C1 (stereo in doubt) [Final product of Embodiment 8, (R)-1-(3-((4-((4-([1,2,4]triazolo[4,3-c]pyrimidin-7-yloxy)-3-methylphenyl)amino)quinazolin-6-yl)amino)piperidin-1-yl)propan-2-en-1-one] | – | 11 | 28 | 17.5 | 17 | 10.3 | 19.4 | 136 | 11 | 61 | 72
6 | C=CC(=O)NC1CCC=C(c2ccc3ncnc(Nc4ccc(Oc5cc6nncn6cn5)c(C)c4)c3c2)C1 (centres unmarked) [Final product of Embodiment 1, N-(3-(4-((4-([1,2,4]triazolo[4,3-c]pyrimidin-7-yloxy)-3-methylphenyl)amino)quinazolin-6-yl)cyclohex-3-en-1-yl)acrylamide] | – | 25 | 37 | 0.947 | 74 | 5.07 | 4.45 | 14.4 | 47 | 91 | 94
7 | C=CC(=O)N[C@@H]1CCCN(c2ccc3ncnc(Nc4ccc(Oc5cc6nncn6cn5)c(C)c4)c3c2)C1 [Final product of Embodiment 3, (R)—N-(1-(4-((4-([1,2,4]triazolo[4,3-c]pyrimidin-7-yloxy)-3-methylphenyl)amino)quinazolin-6-yl)piperidin-3-yl) acrylamide] | – | 4 | 9 | 3.83 | 26 | 15.3 | 15.6 | 24.3 | 14 | 54 | 61
8 | C=C(F)C(=O)N1CC=C(c2ccc3ncnc(Nc4ccc(Oc5cc6nncn6cn5)c(C)c4)c3c2)CC1 [Final product of Embodiment 6, 1-(4-(4-((4-([1,2,4]triazolo[4,3-c]pyrimidin-7-yloxy)-3-methylphenyl)amino)quinazolin-6-yl)-5,6-dihydropyridin-1(2H)-yl)-2-fluoropropyl-2-en-1-one] | – | 30 | 41 | 2.92 | 55 | 16.1 | 24 | 233 | 13 | 72 | 80
9 | Cc1cc(Nc2ncnc3ccc(NC(=O)/C=C/[C@H]4CCCN4)cc23)ccc1Oc1ccn2ncnc2c1 [Final product of Embodiment 19, (R,E)-N-(4-((4-([1,2,4]triazolo[1,5-a]pyridin-7-yloxy)-3-methylphenyl)amino)quinazolin-6-yl)-3-(pyrrolidin-2-yl)acrylamide] | – | 60 | < 0 | 0.716 | < 0 | 26 | 28.4 | 3.97 | 7 | 16 | 38
10 | Cc1cc(Nc2ncnc3ccc(NC(=O)/C=C/[C@H]4CCCN4C)cc23)ccc1Oc1ccc2nccn2c1 [Final product of Embodiment 24] | – | 90 | 36 | 6.46 | 48 | 4.6 | 2.93 | 4.08 | 18 | 36 | 48
11 | Cc1cc(Nc2ncnc3ccc(NC(=O)/C=C/[C@H]4CCCN4C)cc23)ccc1Oc1ccc2nccn2n1 [Final product of Embodiment 10] | – | 46 | 9 | 1.34 | < 0 | 4.56 | 3.52 | 4.62 | 14 | 12 | 29
